Measurements reported in patent publication US10668068B2, “Treating cancer with drug combinations” (The Research Foundation for The State University of New York, priority 2015, dated 2020).
pIC50: −log10 of the molar value.

Experiments:
[1] = target: T1, BTK-C (Homo sapiens, UniProt Q06187); experiment: Inhibition of BTK-C kinase activity / activating phosphorylation (FIG. 8A-C); format: cell-based
T1 construct: Flag; expressed in transfected cells; host or cells: SKBR3-BTK-C (SKBR3 human breast cancer cells expressing BTK-C)
T1 sequence (Q06187 1-693 isoform Q06187-2): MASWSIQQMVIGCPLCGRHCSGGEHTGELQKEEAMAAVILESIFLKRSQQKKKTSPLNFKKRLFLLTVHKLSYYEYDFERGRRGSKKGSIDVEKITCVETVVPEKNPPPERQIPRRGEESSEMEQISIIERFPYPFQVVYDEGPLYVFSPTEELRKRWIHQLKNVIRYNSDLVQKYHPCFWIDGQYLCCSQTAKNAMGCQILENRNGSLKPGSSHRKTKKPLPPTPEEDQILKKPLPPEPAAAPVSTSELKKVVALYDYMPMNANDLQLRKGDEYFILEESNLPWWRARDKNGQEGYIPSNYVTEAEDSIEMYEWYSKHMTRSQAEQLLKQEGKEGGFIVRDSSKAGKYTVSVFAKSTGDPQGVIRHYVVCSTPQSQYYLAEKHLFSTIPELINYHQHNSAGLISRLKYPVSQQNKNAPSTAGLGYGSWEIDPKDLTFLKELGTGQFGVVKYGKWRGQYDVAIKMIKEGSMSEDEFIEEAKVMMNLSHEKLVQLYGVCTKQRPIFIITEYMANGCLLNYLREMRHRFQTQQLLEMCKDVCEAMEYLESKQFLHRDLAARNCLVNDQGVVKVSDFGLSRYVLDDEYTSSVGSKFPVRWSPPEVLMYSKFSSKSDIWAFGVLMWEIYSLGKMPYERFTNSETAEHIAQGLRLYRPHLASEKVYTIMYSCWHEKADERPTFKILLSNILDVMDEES

[2] = tested on: EGFR, HER2, Her3 and ErbB4; experiment: Western blotting of EGFR family activation and downstream Akt/Erk in BT474 cells; format: cell-based, human; conditions: 2 hours; for phosphorylation (activation) of EGFR family: ibrutinib 0.05 or 0.1 μM, AVL-292 0.1 μM
Description: (§1) Immunoblotting was performed essentially as described previously. Equal amounts of proteins were used. Antibodies used were anti-EGFR (1:1000,), anti-HER2 (1:1000,), anti-ERBB3, ERBB4 antibody, anti-BTK, anti-AKT, ERIK, anti-PLCγ1, PLCγ2 and anti-PARP (1:1000, cell signaling), anti-Flag antibody (1:1000, Sigma), anti-rabbit IgG-HRP and mouse IgG-HRP (1:5000, Jackson ImmunoResearch).

[3] = tested on: breast cancer cells; conditions: cited from earlier work
[4] = tested on: HER2-positive breast cancer cells; experiment: Apoptosis assay (Alexa Fluor 488 annexin V)
[5] = tested on: BT474 human breast cancer cells; experiment: Cell cycle analysis (propidium iodide, flow cytometry); format: cell-based
Description: After trypsinized, cells were collected and washed with cold PBS. Cells were fixed with 70% ethanol, washed and stained with PI/Triton X-100 staining solution (0.1% triton X-100, 2 μg/ml PI and 0.2 mg/ml DNAse-free RNAse) for 30 min. Samples were analyzed by flow cytometry.

[6] = tested on: HER2-positive breast cancer cells; experiment: Cell growth assay (live cell count); format: cell-based; conditions: Homo sapiens, 72 h; 3 days of culture; read-out: IC50 for effect on HER2-positive breast cancer cells
Description: (§2) For live cell counts, cell growth on 96-well plates were fixed 4% formaldehyde and counterstained with Hoechst 33342 for nuclei.

[7] = tested on: BT474 cells; experiment: Cell growth assay (live cell count), monolayer culture; format: cell-based, human; conditions: 0.01 μM, 3 days
Description: as §2

[8] = tested on: SKBR3 cells; experiment: Cell growth assay (live cell count); format: cell-based, human; conditions: 1 μM, 3 days
Description: as §2

[9] = tested on: xenografts of SKBR3
Description: NOD/SCID mice were purchased from Jackson Lab (The Jackson Laboratory, Bar Harbor, Me., USA). All mouse procedures were approved by the Animal Care and Use Committees of SUNY Albany and performed in accordance with institutional policies.
For xenograft tumor studies, 1×10^6 SKBR3 cells were suspended in 50 μl Matrigel (BD Biosciences) diluted 1:2 with DMEM and injected into mammary fat pad. Treatment began when tumors were palpable. […] The tumor volume in mm^3 is calculated by the formula: volume=(width)^2×length/2 every 7 days.

[10] = tested on: HER2-positive breast cancer cells; experiment: Live cell count with NRG1 or EGF (growth factor driven rescue)
[11] = tested on: SKBR3 cells; experiment: Nine days NRG1 co-treatment, crystal violet staining; format: cell-based, human; conditions: 9 days, drug 1 uM, NRG1 50 ng/ml
Description: (§3) Cells were cultured in 6-well plates for indicated days. Cells were fixed with 3.7% paraformaldehyde for 10 min and washed with PBS. After wash, cells were stained with 0.05% CV for 30 min Whole plate was washed with tape water. Dry plate was added with 0.5 ml methanol to solubilize the dye. Taking an aliquot to 96-well plate and reading CV stain with OD 540. Tumorospheres were counted under low magnification.

[12] = tested on: BT474 cells; experiment: as above; format: cell-based, human; conditions: 9 days, drug 1 uM, NRG1 50 ng/ml
Description: as §3

[13] = tested on: AKT; experiment: Immunoblots of NRG1 effect on HER2, AKT and ERK activation in BT474 and SkBR3 cells; format: cell-based, human; conditions: 2 h
Description: as §1

For `C=CC(=O)Nc1cccc(Nc2nc(Nc3ccc(OCCOC)cc3)ncc2F)c1` [AVL-292, N-(3-((5-fluoro-2((4-(2-methoxyethoxy)phenyl)amino)pyrimidin-4-yl)amino)phenyl)acrylamide], the BTK-C activating phosphorylation ([1]; FIG. 8C) was “inhibit BTK-C activating phosphorylation”, the “inhibition of BTK-C kinase activity” value ([1]; compared with ibrutinib) was “inhibit BTK-C kinase activity to the same degree as ibrutinib” and the “phosphorylation (activation) of EGFR family” value [2] was “does not block EGFR family signaling pathway activation”.
With `Cc1c(NC(=O)c2ccc(C(C)(C)C)cc2)cccc1-c1cn(C)c(=O)c(Nc2ccc(C(=O)N3CCOCC3)cc2)n1` [CGI-1746] the “phosphorylation (activation) of EGFR family” value [2] was “but not AVL-292 and CGI-1746, efficiently blocks activation of EGFR, HER2, ErbB3, and ErbB4”.
For `C/C(O)=C(\C#N)C(=O)Nc1cc(Br)ccc1Br` [LFM-A13], the apoptosis levels [3] is listed as “increase apoptosis levels”.
In the case of `C=CC(=O)N1CCC[C@@H](n2nc(-c3ccc(Oc4ccccc4)cc3)c3c(N)ncnc32)C1` [ibrutinib], the “apoptosis induction compared with lapatinib” value ([4]; HER2-positive breast cancer cells) was 1.5 fold, the “decrease in the number of cells in the S phase” value ([5]; 0.03 μM, compared with controls) was 50% and the pIC50 [6] was 7.52. The “cell population, % of control” value ([7]; BT474 monolayer) was 30 % of control, the “reduction of cell numbers” value [8] was “more than 80%” and the “tumor volume smaller than vehicle control / inhibition of tumor growth” value ([9]; 12 mg/kg/day p.o., day 28) was 45%.
For `CS(=O)(=O)CCNCc1ccc(-c2ccc3ncnc(Nc4ccc(OCc5cccc(F)c5)c(Cl)c4)c3c2)o1` [lapatinib], the “rescue from growth inhibition by NRG1” value ([10]; 50 ng/ml of NRG1, 3 days) was “NRG1 application is able to rescue”, the cell growth suppression ([10]; drug without growth factor, 3 days) was “potently suppresses cell growth” and the “number of apoptotic cells” value ([4]; 0.05 or 0.1 μM, 24 hours) was “increase in the number of apoptotic cells”. For the same molecule, the G1-S arrest ([5]; 24 hours) was “appreciable G1-S arrest”, the “drug resistance after NRG1 co-treatment” value [11] was “yields cells that exhibit lapatinib resistance” and the “drug resistance after NRG1 co-treatment” value [12] was “yields cells that exhibit lapatinib resistance”. For the same molecule, the “re-activation of AKT by NRG1” value ([13]; co-treatment with NRG1 50 ng/ml) was “NRG1 re-activates AKT without activation of HER2”, the “activation of HER2, AKT and ERK” value ([13]; drug alone) was “blocked” and the “reduction of cell numbers” value ([7]; monolayer) was “fails to reduce HER2-positive breast cancer cell numbers significantly”. The “Akt and Erk phosphorylation / downstream signaling” value [2] was “inhibits both AKT and ERK phosphorylation” and the “potency in SKBR3 tumor xenograft compared with ibrutinib 12 mg/kg/day” value ([9]; lapatinib 75 mg/kg/day p.o.) was “less potent”.
